Experiments:
[1] = tested on: bedstraw; assay: Test B pre/postemergence bedstraw; assay type: in vivo, Galium aparine
Outline: (§1)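 Herbicidal effect was estimated by eye on a ten-point control scale after plants spent twelve to sixteen days in a greenhouse following soil or foliar treatment. Foliar sprays targeted plants at one to four leaves; all doses were formulated in a non-phytotoxic solvent with surfactant.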

[2] = tested on: blackgrass; assay: Test B pre/postemergence blackgrass; assay type: in vivo, Alopecurus myosuroides
Outline: as §1

[3] = tested on: surinam grass; assay: Test B pre/postemergence surinam grass; assay type: in vivo, Brachiaria decumbens
Outline: as §1

[4] = tested on: cocklebur; assay: Test B pre/postemergence cocklebur; assay type: in vivo, Xanthium strumarium
Outline: as §1

[5] = tested on: corn; assay: Test B pre/postemergence corn; assay type: in vivo, Zea mays
Outline: as §1

[6] = tested on: morningglory; assay: Test B pre/postemergence morningglory; assay type: in vivo, Ipomoea hederacea
Outline: as §1

[7] = tested on: pigweed; assay: Test B pre/postemergence pigweed; assay type: in vivo, Amaranthus retroflexus
Outline: as §1

[8] = tested on: rape; assay: Test B pre/postemergence rape; assay type: in vivo, Brassica napus
Outline: as §1

[9] = tested on: soybean; assay: Test B pre/postemergence soybean; assay type: in vivo, Glycine max
Outline: as §1

[10] = tested on: sugar beet; assay: Test B pre/postemergence sugar beet; assay type: in vivo, Beta vulgaris
Outline: as §1

[11] = tested on: velvetleaf; assay: Test B pre/postemergence velvetleaf; assay type: in vivo, Abutilon theophrasti
Outline: as §1

[12] = tested on: wild oat; assay: Test B pre/postemergence wild oat; assay type: in vivo, Avena fatua
Outline: as §1

[13] = tested on: purple nutsedge; assay: Test B pre/postemergence purple nutsedge; assay type: in vivo, Cyperus rotundus
Outline: as §1

[14] = tested on: rice; assay: Test B flood test rice; assay type: in vivo, Oryza sativa
Outline: (§2)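 Plants were grown to the 2-leaf stage before treatment with test chemical, then held in a greenhouse for twelve to sixteen days. Injury was visually rated against untreated controls on a 0–10 scale, where 0 is no effect and 10 is complete control.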

[15] = tested on: smallflower flatsedge; assay: Test B flood test smallflower flatsedge; assay type: in vivo, Cyperus difformis
Outline: as §2

[16] = tested on: bamyardgrass; assay: Test B flood test barnyardgrass; assay type: in vivo, Echinochloa crus-galli
Outline: as §2

[17] = Preemergence, Rate 62 g/ha, scale of 0 to 10 where 0 is no effect and 10 is complete control
[18] = Preemergence, Rate 250 g/ha, scale of 0 to 10 where 0 is no effect and 10 is complete control
[19] = Preemergence, Rate 500 g/ha, scale of 0 to 10 where 0 is no effect and 10 is complete control
[20] = Rate 62 g/ha, Postemergence, scale 0 to 10 (0 no effect, 10 complete control)
[21] = Rate 125 g/ha, Postemergence, scale of 0 to 10 where 0 is no effect and 10 is complete control
[22] = Rate 250 g/ha, Postemergence, scale of 0 to 10 where 0 is no effect and 10 is complete control
[23] = Rate 500 g/ha, Postemergence, scale 0 to 10, 0 no effect, 10 complete control
[24] = Rate 62 g/ha, headed Pre-emergence (flood test species), scale 0 to 10 (0 no effect, 10 complete control)
[25] = Rate 125 g/ha, Pre-emergence, flood test species, scale 0 to 10 where 0 is no effect and 10 is complete control
[26] = Rate 250 g/ha, Pre-emergence, flood-test species, scale 0 to 10, 0 is no effect, 10 is complete control
[27] = Rate 500 g/ha, Pre-emergence, flood test species, scale 0 to 10 (0 no effect, 10 complete control)

In the case of `CC(C)N(C(=O)n1oc(=O)n(C2CCCCO2)c1=O)c1ccc(F)cc1` (stereo not drawn) [Compound 311], the “Bedstraw plant response rating” value [1, 17] is reported as 0, the “Bedstraw plant response rating (0 to 10 scale)” value ([1]; Preemergence, Rate 125 g/ha) is reported as 0 and the “Bedstraw plant response rating” value [1, 18] is reported as 0. The “Bedstraw plant response rating” value [1, 19] was 0, the “Bedstraw plant response rating” value [1, 20] was 0 and the “Bedstraw plant response rating” value [1, 21] was 0. The “Plant response rating, Bedstraw” value [1, 22] was 0, the “Bedstraw plant response rating” value [1, 23] was 2 and the “Blackgrass plant response rating” value [2, 17] was 0. For the same molecule, the “Blackgrass plant response rating (0 to 10 scale)” value ([2]; Preemergence, Rate 125 g/ha) was 0, the “Blackgrass plant response rating” value [2, 18] was 0 and the “Blackgrass plant response rating” value [2, 19] was 0. The “Blackgrass plant response rating” value [2, 20] was 0, the “Blackgrass plant response rating” value [2, 21] was 0 and the “Plant response rating, Blackgrass” value [2, 22] was 0. The “Blackgrass plant response rating” value [2, 23] was 0, the “B. signalgrass plant response rating” value [3, 17] was 0 and the “B. signalgrass plant response rating (0 to 10 scale, 0 is no effect, 10 is complete control)” value ([3]; Preemergence, Rate 125 g/ha) was 0. For the same molecule, the “B. signalgrass plant response rating” value [3, 18] was 0, the “B. signalgrass plant response rating” value [3, 19] was 0 and the “B. signalgrass plant response rating” value [3, 20] was 0. For the same molecule, the “B. signalgrass plant response rating” value [3, 21] was 0, the “Plant response rating, B. signalgrass” value [3, 22] was 0 and the “B. signalgrass plant response rating” value [3, 23] was 0. For the same molecule, the “Cocklebur plant response rating” value [4, 17] was 0, the “Cocklebur plant response rating (0 to 10 scale)” value ([4]; Preemergence, Rate 125 g/ha) was 0 and the “Cocklebur plant response rating” value [4, 18] was 0. The “Cocklebur plant response rating” value [4, 19] was 0, the “Cocklebur plant response rating” value [4, 20] was 0 and the “Cocklebur plant response rating” value [4, 21] was 0. The “Plant response rating, Cocklebur” value [4, 22] was 0, the “Cocklebur plant response rating” value [4, 23] was 0 and the “Corn plant response rating” value [5, 17] was 0. For the same molecule, the “Corn plant response rating (0 to 10 scale)” value ([5]; Preemergence, Rate 125 g/ha) was 0, the “Corn plant response rating” value [5, 18] was 0 and the “Corn plant response rating” value [5, 19] was 0. The “Corn plant response rating” value [5, 20] was 0, the “Corn plant response rating” value [5, 21] was 0 and the “Plant response rating, Corn” value [5, 22] was 0. For the same molecule, the “Corn plant response rating” value [5, 23] was 0, the “Morningglory plant response rating” value [6, 17] was 0 and the “Morningglory plant response rating (0 to 10 scale)” value ([6]; Preemergence, Rate 125 g/ha) was 0. The “Morningglory plant response rating” value [6, 18] was 0, the “Morningglory plant response rating” value [6, 19] was 0 and the “Morningglory plant response rating” value [6, 20] was 0. The “Morningglory plant response rating” value [6, 21] was 4, the “Plant response rating, Morningglory” value [6, 22] was 8 and the “Redroot pigweed plant response rating” value [7, 17] was 0. The “Redroot pigweed plant response rating (0 to 10 scale)” value ([7]; Preemergence, Rate 125 g/ha) was 0, the “Redroot pigweed plant response rating” value [7, 18] was 0 and the “Redroot pigweed plant response rating” value [7, 19] was 0. For the same molecule, the “Redroot pigweed plant response rating” value [7, 20] was 0, the “Redroot pigweed plant response rating” value [7, 21] was 0 and the “Plant response rating, Redroot pigweed” value [7, 22] was 0. The “Rape plant response rating” value [8, 17] was 0, the “Rape plant response rating (0 to 10 scale)” value ([8]; Preemergence, Rate 125 g/ha) was 0 and the “Rape plant response rating” value [8, 18] was 0. For the same molecule, the “Rape plant response rating” value [8, 19] was 0, the “Rape plant response rating” value [8, 20] was 0 and the “Rape plant response rating” value [8, 21] was 0. The “Plant response rating, Rape” value [8, 22] was 0, the “Soybean plant response rating” value [9, 17] was 0 and the “Soybean plant response rating (0 to 10 scale)” value ([9]; Preemergence, Rate 125 g/ha) was 0. The “Soybean plant response rating” value [9, 18] was 0, the “Soybean plant response rating” value [9, 19] was 0 and the “Soybean plant response rating” value [9, 20] was 2. For the same molecule, the “Soybean plant response rating” value [9, 21] was 2, the “Plant response rating, Soybean” value [9, 22] was 3 and the “Sugarbeets plant response rating” value [10, 17] was 0. The “Sugarbeets plant response rating (0 to 10 scale)” value ([10]; Preemergence, Rate 125 g/ha) was 0, the “Sugarbeets plant response rating” value [10, 18] was 0 and the “Sugarbeets plant response rating” value [10, 19] was 0. The “Sugarbeets plant response rating” value [10, 20] was 0, the “Sugarbeets plant response rating” value [10, 21] was 0 and the “Plant response rating, Sugarbeets” value [10, 22] was 0. For the same molecule, the “Velvetleaf plant response rating” value [11, 17] was 0, the “Velvetleaf plant response rating (0 to 10 scale)” value ([11]; Preemergence, Rate 125 g/ha) was 0 and the “Velvetleaf plant response rating” value [11, 18] was 0. For the same molecule, the “Velvetleaf plant response rating” value [11, 19] was 0, the “Velvetleaf plant response rating” value [11, 20] was 0 and the “Velvetleaf plant response rating” value [11, 21] was 0. For the same molecule, the “Plant response rating, Velvetleaf” value [11, 22] was 0, the “Wild oats plant response rating” value [12, 17] was 0 and the “Wild oats plant response rating (0 to 10 scale)” value ([12]; Preemergence, Rate 125 g/ha) was 0. For the same molecule, the “Wild oats plant response rating” value [12, 18] was 0, the “Wild oats plant response rating” value [12, 19] was 0 and the “Wild oats plant response rating” value [12, 20] was 0. For the same molecule, the “Wild oats plant response rating” value [12, 21] was 0, the “Plant response rating, Wild oats” value [12, 22] was 0 and the “Nutsedge plant response rating” value [13, 17] was 0. The “Nutsedge plant response rating (0 to 10 scale)” value ([13]; Preemergence, Rate 125 g/ha) was 0, the “Nutsedge plant response rating” value [13, 18] was 0 and the “Nutsedge plant response rating” value [13, 19] was 0. The “Nutsedge plant response rating” value [13, 20] was 0, the “Nutsedge plant response rating” value [13, 21] was 0 and the “Plant response rating, Nutsedge” value [13, 22] was 0. For the same molecule, the “Rice plant response rating” value [14, 24] was 0, the “Rice plant response rating” value [14, 25] was 0 and the “Rice plant response rating” value [14, 26] was 0. The “Rice plant response rating” value [14, 27] was 0, the “S. Flatsedge plant response rating” value [15, 24] was 0 and the “S. Flatsedge plant response rating” value [15, 25] was 0. For the same molecule, the “S. Flatsedge plant response rating” value [15, 26] was 0, the “S. Flatsedge plant response rating” value [15, 27] was 0 and the “Barnyardgrass plant response rating” value [16, 24] was 0. For the same molecule, the “Barnyardgrass plant response rating” value [16, 25] was 0, the “Barnyardgrass plant response rating” value [16, 26] was 0 and the “Barnyardgrass plant response rating” value [16, 27] was 0.

From patent publication US6737383B1, “Herbicidal oxadiazolidines” (priority 1999, dated 2004)
